Source: US7022667B2, “O-derivatized nocathiacin derivatives” (Bristol-Myers Squibb Company, priority 2002, dated 2006)
≈ marks a conversion by molar mass, not a printed value.

Legend:
Assay in all cases: MIC, broth micro dilution assay (NCCLS)
Format in all cases: cell-based
[1] = system: Enterococcus faecalis A20688; details: Mueller-Hinton medium, 35° C., 18 hours
Procedure: (§1) The serial broth dilution method used Mueller-Hinton medium except for the Streptococcus pneumoniae which was tested in 50% Mueller-Hinton medium and 50% Todd Hewitt medium. The final bacterial inoculate contained approximately 5×10^5 cfu/well and was run on microtiter plates. The volume of each well was 100 μL and the plates were incubated at 35° C. for 18 hours in ambient air. The MIC was defined as the lowest drug concentration that prevented visible growth.

[2] = system: Staphylococcus aureus A15090; details: Mueller-Hinton medium, 35° C., 18 hours
Procedure: as §1

[3] = system: Streptococcus pneumoniae A28272; details: 50% Mueller-Hinton medium and 50% Todd Hewitt medium, 35° C., 18 hours
Procedure: as §1

| Structure (SMILES) | MIC (μg/mL) Enterococcus faecalis A20688 [1] | MIC (μg/mL) Staphylococcus aureus A15090 [2] | MIC (μg/mL) Streptococcus pneumoniae A28272 [3] |
| --- | --- | --- | --- |
| C=C(NC(=O)c1csc(-c2nc3c(cc2O)-c2nc(cs2)C(=O)NC(C(C)O)C(=O)NC(=C(C)OC)c2nc(cs2)C(=O)NC2c4nc(cs4)C(=O)NC(COC(=O)c4c5c6c(cccc6n4OCOP(=O)(O)O)COC(=O)C(OC4CC(C)(O)C(N(C)C)C(C)O4)C2OC5)c2nc-3cs2)n1)C(N)=O (stereo not drawn) [Example 12] | 1.0 µg/mL (≈ 0.646 µM) | 0.25 µg/mL (≈ 0.162 µM) | 0.015 µg/mL (≈ 0.00969 µM) |
| C=C(NC(=O)c1csc(-c2nc3c(cc2O)-c2nc(cs2)C(=O)NC(C(C)O)C(=O)NC(=C(C)OC)c2nc(cs2)C(=O)NC2c4nc(cs4)C(=O)NC(COC(=O)c4c5c6c(cccc6n4OCCCl)COC(=O)C(OC4CC(C)(O)C(N(C)C)C(C)O4)C2OC5)c2nc-3cs2)n1)C(N)=O.Cl (stereo not drawn) [Example 13] | 0.03 µg/mL | 0.015 µg/mL | 0.003 µg/mL |
| C=C(NC(=O)c1csc(-c2nc3c(cc2O)-c2nc(cs2)C(=O)NC(C(C)O)C(=O)NC(=C(C)OC)c2nc(cs2)C(=O)NC2c4nc(cs4)C(=O)NC(COC(=O)c4c5c6c(cccc6n4OC(=O)NCCCC)COC(=O)C(OC4CC(C)(O)C(N(C)C)C(C)O4)C2OC5)c2nc-3cs2)n1)C(N)=O (stereo not drawn) [Example 15] | 0.03 µg/mL (≈ 0.0195 µM) | ≦0.001 μg/mL | 0.007 µg/mL (≈ 0.00456 µM) |
| C=C(NC(=O)c1csc(-c2nc3c(cc2O)-c2nc(cs2)C(=O)NC(C(C)O)C(=O)NC(=C(C)OC)c2nc(cs2)C(=O)NC2c4nc(cs4)C(=O)NC(COC(=O)c4c5c6c(cccc6n4OC(=O)NCCCN4CCN(C)CC4)COC(=O)C(OC4CC(C)(O)C(N(C)C)C(C)O4)C2OC5)c2nc-3cs2)n1)C(N)=O (stereo not drawn) [Example 16] | 0.003 µg/mL (≈ 0.00185 µM) | 0.003 µg/mL (≈ 0.00185 µM) | 0.0005 µg/mL (≈ 0.000308 µM) |
| C=C(NC(=O)c1csc(-c2nc3c(cc2OC)-c2nc(cs2)C(=O)NC(C(C)O)C(=O)NC(=C(C)OC)c2nc(cs2)C(=O)NC2c4nc(cs4)C(=O)NC(COC(=O)c4c5c6c(cccc6n4OC)COC(=O)C(OC4CC(C)(O)C(N(C)C)C(C)O4)C2OC5)c2nc-3cs2)n1)C(N)=O (stereo not drawn) [Example 18] | 0.015 µg/mL (≈ 0.0102 µM) | 0.007 µg/mL (≈ 0.00478 µM) | 0.001 µg/mL (≈ 0.000682 µM) |
| C=C(NC(=O)c1csc(-c2nc3c(cc2OCC(=O)O)-c2nc(cs2)C(=O)NC(C(C)O)C(=O)NC(=C(C)OC)c2nc(cs2)C(=O)NC2c4nc(cs4)C(=O)NC(COC(=O)c4c5c6c(cccc6n4OCC(=O)O)COC(=O)C(OC4CC(C)(O)C(N(C)C)C(C)O4)C2OC5)c2nc-3cs2)n1)C(N)=O.O=C(O)C(F)(F)F (stereo not drawn) [Example 20] | >128 µg/mL | 16 µg/mL | 0.5 µg/mL |
| C=C(NC(=O)c1csc(-c2nc3c(cc2OCCN2CCOCC2)-c2nc(cs2)C(=O)NC(C(C)O)C(=O)NC(=C(C)OC)c2nc(cs2)C(=O)NC2c4nc(cs4)C(=O)NC(COC(=O)c4c5c6c(cccc6n4OCCN4CCOCC4)COC(=O)C(OC4CC(C)(O)C(N(C)C)C(C)O4)C2OC5)c2nc-3cs2)n1)C(N)=O (stereo not drawn) [Example 26] | 0.25 µg/mL (≈ 0.15 µM) | 1.0 µg/mL (≈ 0.601 µM) | 0.03 µg/mL (≈ 0.018 µM) |
| C=C(NC(=O)c1csc(-c2nc3c(cc2O)-c2nc(cs2)C(=O)NC(C(C)O)C(=O)NC(=C(C)OC)c2nc(cs2)C(=O)NC2c4nc(cs4)C(=O)NC(COC(=O)c4c5c6c(cccc6n4OCCN4CCOCC4)COC(=O)C(OC4CC(C)(O)C(N(C)C)C(C)O4)C2OC5)c2nc-3cs2)n1)C(N)=O.O=C(O)C(F)(F)F (stereo not drawn) [Example 27] | 0.06 µg/mL | 0.25 µg/mL | 0.015 µg/mL |

The next lines start with the values.

| MIC (μg/mL) Enterococcus faecalis A20688 [1] | MIC (μg/mL) Staphylococcus aureus A15090 [2] | MIC (μg/mL) Streptococcus pneumoniae A28272 [3] | Structure (SMILES) |
| --- | --- | --- | --- |
| 2.0 µg/mL | >128 µg/mL | 0.5 µg/mL | C=C(NC(=O)c1csc(-c2nc3c(cc2O)-c2nc(cs2)C(=O)NC(C(C)O)C(=O)NC(=C(C)OC)c2nc(cs2)C(=O)NC2c4nc(cs4)C(=O)NC(COC(=O)c4c5c6c(cccc6n4OCCC[N+](C)(C)C)COC(=O)C(OC4CC(C)(O)C(N(C)C)C(C)O4)C2OC5)c2nc-3cs2)n1)C(N)=O (stereo not drawn) [Example 14] |
| 0.125 µg/mL (≈ 0.079 µM) | 0.06 µg/mL (≈ 0.0379 µM) | 0.003 µg/mL (≈ 0.0019 µM) | C=C(NC(=O)c1csc(-c2nc3c(cc2OCC(=O)OC)-c2nc(cs2)C(=O)NC(C(C)O)C(=O)NC(=C(C)OC)c2nc(cs2)C(=O)NC2c4nc(cs4)C(=O)NC(COC(=O)c4c5c6c(cccc6n4OCC(=O)OC)COC(=O)C(OC4CC(C)(O)C(N(C)C)C(C)O4)C2OC5)c2nc-3cs2)n1)C(N)=O (stereo not drawn) [Example 19] |
| 0.25 µg/mL | 0.125 µg/mL | 0.015 µg/mL | C=C(NC(=O)c1csc(-c2nc3c(cc2OCOP(=O)([O-])O)-c2nc(cs2)C(=O)NC(C(C)O)C(=O)NC(=C(C)OC)c2nc(cs2)C(=O)NC2c4nc(cs4)C(=O)NC(COC(=O)c4c5c6c(cccc6n4OCOP(=O)([O-])O)COC(=O)C(OC4CC(C)(O)C(N(C)C)C(C)O4)C2OC5)c2nc-3cs2)n1)C(N)=O.[Na+].[Na+] (stereo not drawn) [Example 22] |
| 0.25 µg/mL (≈ 0.169 µM) | 0.03 µg/mL (≈ 0.0203 µM) | 0.06 µg/mL (≈ 0.0406 µM) | C=C(NC(=O)c1csc(-c2nc3c(cc2O)-c2nc(cs2)C(=O)NC(C(C)O)C(=O)NC(=C(C)OC)c2nc(cs2)C(=O)NC2c4nc(cs4)C(=O)NC(COC(=O)c4c5c6c(cccc6n4OC(C)=O)COC(=O)C(OC4CC(C)(O)C(N(C)C)C(C)O4)C2OC5)c2nc-3cs2)n1)C(N)=O (stereo not drawn) [Example 23] |
| 0.015 µg/mL | 0.03 µg/mL | 0.03 µg/mL | C=C(NC(=O)c1csc(-c2nc3c(cc2OC(C)=O)-c2nc(cs2)C(=O)NC(C(C)O)C(=O)NC(=C(C)OC)c2nc(cs2)C(=O)NC2c4nc(cs4)C(=O)NC(COC(=O)c4c5c6c(cccc6n4O)COC(=O)C(OC4CC(C)(O)C(N(C)C)C(C)O4)C2OC5)c2nc-3cs2)n1)C(N)=O.Cl (stereo not drawn) [Example 24] |
| 32 µg/mL | 2.0 µg/mL | 0.25 µg/mL | C=C(NC(=O)c1csc(-c2nc3c(cc2OCCCS(=O)(=O)[O-])-c2nc(cs2)C(=O)NC(C(C)O)C(=O)N/C(=C(\C)OC)c2nc(cs2)C(=O)NC2c4nc(cs4)C(=O)NC(COC(=O)c4c5c6c(cccc6n4O)COC(=O)C(OC4CC(C)(O)C(N(C)C)C(C)O4)C2OC5)c2nc-3cs2)n1)C(N)=O.[Na+] (stereo not drawn) [Example 28] |
| 0.5 µg/mL (≈ 0.305 µM) | 0.25 µg/mL (≈ 0.152 µM) | 0.06 µg/mL (≈ 0.0365 µM) | C=C(NC(=O)c1csc(-c2nc3c(cc2OC(=O)C(C)(C)C(=O)OCc2ccccc2)-c2nc(cs2)C(=O)NC(C(C)O)C(=O)NC(=C(C)OC)c2nc(cs2)C(=O)NC2c4nc(cs4)C(=O)NC(COC(=O)c4c5c6c(cccc6n4O)COC(=O)C(OC4CC(C)(O)C(N(C)C)C(C)O4)C2OC5)c2nc-3cs2)n1)C(N)=O (stereo not drawn) [Example 31] |
